Measurements from US6303596A, “Use of taurolidine for treatment of leukemias” (priority 2000, dated 2001).

How the values were obtained:
REH [1] = assay: growth rate after taurolidine treatment, REH; format: cell-based; details: Homo sapiens, 72 h, growth over three days, read-out: growth rate (% of control)
Description: FIGS. 8A and 8B depict cell viability and growth rates for REH cell line following taurolidine treatment, in terms of % trypan blue negative cells and % cell number, respectively. Cells were treated with various concentrations of taurolidine for 4 hours in AIM-V+0.01% BCS. After aliquots were collected for LDH assay, the remainder of the culture was rinsed in HBSS and resuspended in RPMI+10% BCS without taurolidine. Counts of trypan blue-negative cells (FIG. 8A), and total cell number (FIG. 8B), were recorded daily thereafter (with the measurement at Day 1 being made immediately after the 4 hour taurolidine treatment). […] Doubling times were determined under each condition, and expressed as a percentage of the rate of doubling of untreated cells. […]
In these experiments, integrity of cell membranes following taurolidine treatment was assessed by exclusion of trypan blue and by measuring the release of LDH in MM6, K-562, HL-60, and REH cells. […] A parallel aliquot of cells was lysed by three cycles of freeze/thaw and the quantity of LDH released was taken to be 100%. […]
HL-60 cells treated with 50 μl taurolidine. In these samples, LDH present in the culture medium was 8.3±2.3% of that released by completely lysed cells, compared with 2.3±0.8% measured in control cultures. […]
^b Growth rate was measured over three days following treatment.

Jurkat cells = assay: growth rate after taurolidine treatment, Jurkat; format: cell-based, human
Description: FIGS. 9A and 9B depict cell viability and growth rates for Jurkat cell line following taurolidine treatment, in terms of % trypan blue negative cells and % cell number, respectively. Cells were treated with various concentrations of taurolidine for 4 hours in AIM-V+0.01% BCS. After aliquots were collected for LDH assay, the remainder of the culture was rinsed in HBSS and resuspended in RPMI+10% BCS without taurolidine. Counts of trypan blue-negative cells (FIG. 9A), and total cell number (FIG. 9B), were recorded daily thereafter (with the measurement at Day 1 being made immediately after the 4 hour taurolidine treatment). Conditions were: no treatment (open circles); 25 μg/ml taurolidine (closed circles); 50 μg/ml taurolidine (open squares); 100 μg/ml taurolidine (closed squares); and vehicle alone (closed triangles). Doubling times were determined under each condition, and expressed as a percentage of the rate of doubling of untreated cells. These values are located to the right of the growth curves in (FIG. 9B). […]
HL-60 cells treated with 50 μl taurolidine. In these samples, LDH present in the culture medium was 8.3±2.3% of that released by completely lysed cells, compared with 2.3±0.8% measured in control cultures. […] After 4 hour treatment, cells were rinsed and returned to growth medium and monitored for viability and growth over the following 3 days. […]

HL-60 = assay: TUNEL / propidium iodide flow cytometry, HL-60; format: cell-based, human; details: for % TUNEL-positive: HL-60, taurolidine 100 μg/ml or anisomycin 1 μg/ml for 4 h, assayed at 6 hours, mean ± SD
Description: (§1) In the second method, DNA fragmentation was detected via TUNEL assay according to the manufacturer's instructions. With this methodology, 2×10^6 cells were fixed with 2% paraformaldehyde, permeabilized with 0.1% Triton X-100/0.1% citrate, incubated at 37° C. with terminal deoxynucleotidyl transferase and FITC-dUTP, rinsed and analyzed by flow cytometry. Enhanced FITC signal indicates apoptosis-specific DNA fragmentation. Gavriali, et al, "Identification of programmed cell death in situ via specific labeling of nuclear DNA fragmentation," J Cell Biol 119:493 (1992). Parallel aliquots of unfixed cells were treated with PI and FITC-conjugated anti-CD14 and analyzed by flow cytometry, in order to identify cells with permeable cell membranes (since PI binds to DNA but is excluded from cells with intact plasma membranes) and also to determine the cell-specificity of the apoptotic signal.
Consequently, TUNEL analysis was performed on PBMC at 3, 6, or 24 hours after treatment with 25 to 100 μg/ml taurolidine. Aliquots of harvested cells were also labeled with FITC-conjugated anti-CD14 antibodies and PI, which allowed identification of monocytes (CD14-positive cells) and cells with damaged cell membranes (PI-positive cells). […] Thus, nearly 75% of the monocytes were TUNEL-positive following treatment with 100 μg/ml taurolidine for six hours. Confirmation that the TUNEL-positive cells were monocytes was obtained by staining with FITC-conjugated anti-CD14.
(§2) In another study, TUNEL assays were performed on all cell lines 6 hours after cells were initially exposed to taurolidine (cells were treated for 4 hours, rinsed, and then incubated for 2 more hours before TUNEL assay was performed).
(§3) . Taurolidine and anisomycin induced apoptosis in MM6, HL-60, and Jurkat cells (Table VIII). MM6 and HL-60 cells were similarly effected, with >80% TUNEL-positive cells after 6 hours. Jurkat cells were less sensitive, with approximately 50% of cells induced to undergo apoptosis after taurolidine treatment. After 6 hours, 73% of anisomycin-treated REH cells were apoptotic, with less than 20% of taurolidine-treated REH cells being TUNEL-positive. However, assay of cells 24 hours after
(§4) ^a Analysis by flow cytometry after staining cells with propidium
(§5) iodide and processing for TUNEL.
(§6) Data are percent of total cell-size events, and are expressed as mean ±
(§7) Cells were treated for 4 hours with taurolidine (100 μg/ml) or
(§8) anisomycin (1 μg/ml), and then assayed at 6 hours.

REH [2] = assay: TUNEL / propidium iodide flow cytometry, REH; format: cell-based, human
Description: as §1, §2, §3, §4, §5, §6, §7, §8
Data are percent of total cell-sized events, and are expressed as mean ±
anisomycin (1 μg/ml), and then assayed at 24 hours.

epithelial cells = details: 5 mg/ml taurolidine, two hours; cited from earlier work

SMILES: O=S1(=O)CCN(CN2CCS(=O)(=O)NC2)CN1 [taurolidine, 4,4'-methylenebis(perhydro-1,2,4-thiadiazin 1,1-dioxide)]
- activity at 50 µg/mL (REH [1]; 50 μg/ml for 4 h): 1%
- activity at 100 µg/mL (REH [1]; 100 μg/ml for 4 h): 18%
- sensitivity of cell growth among cell lines (Jurkat cells): least affected
- % TUNEL-Negative Cells (HL-60; HL-60, 50 μg/ml, 3 hours): 35%
- % TUNEL-positive (HL-60): 91.9 ± 10.9%
- % TUNEL-positive (HL-60; listed as Taurolidine): > 80%
- cytotoxicity at 50 µg/mL (HL-60; Homo sapiens, HL-60, 3 h, read-out: % Propidium Iodide Positive Cells): 5%
- rate of apoptosis induction versus anisomycin (REH [2]): less rapidly than with anisomycin treatment
- % TUNEL-positive (REH [2]; taurolidine 100 μg/ml or anisomycin 1 μg/ml for 4 h, assayed at 24 hours, mean ± SD): 81.4 ± 4.4%
- toxic effects on epithelial cells (epithelial cells): No toxic effects
